One data set concerns PKC. In words: PKC activation over time in hippocampal primary neurons. In kind it is cell-based, rat. On the procedure: (§1) Cell culture. Rat hippocampal H19-7/IGF-IR cells (ATCC, Manassas, Va.) were plated onto poly-L-lysine coated plates and grown at 35° C. in DMEM/10% FCS for several days until about 50% coverage was obtained. The cells were then induced to differentiate into a neuronal phenotype by replacing the medium with 5 ml N2 medium containing 10 ng/ml basic fibroblast growth factor at 39° C. and grown in T-75 flasks at 37° C. Human SH-SY5Y neuroblastoma cells (ATCC) were cultured in 45% F12K/45% MEM/10% FCS. Mouse N2A neuroblastoma cells were cultured in DMEM/10% FCS without glutamine. Rat hippocampal neurons from 18-day-old embryonic Sprague Dawley rat brains were plated on 12- or 96-well plates coated with poly-D-lysine (Sigma-Aldrich, St. Louis, Mo.) in B-27 neurobasal medium containing 0.5 mM glutamine and 25 μM glutamate (Invitrogen, Carlsbad, Calif.) and cultured for three days in the medium without glutamate. The neuronal cells were grown under 5% CO2 in an incubator maintained at 37° C. for 14 days.
Protein kinase C assay. […] 0.5 Ci [^γ32P]ATP was added and ^32P-phosphoprotein formation was measured by adsorption onto phosphocellulose as described previously. […] PKC activity was measured in the absence of diacylglycerol and phosphatidylserine and PKC δ, ε, η, and μ were measured in the absence of added EGTA and CaCl2, as described by Kanno et al. (J. Lipid Res. 2006, vol. 47, pp. 1146-1150). […]

In another data set the target is T1, PKCδ (Homo sapiens, UniProt Q05655).
T1 construct: purchased Calbiochem
T1 sequence (Q05655 whole entry): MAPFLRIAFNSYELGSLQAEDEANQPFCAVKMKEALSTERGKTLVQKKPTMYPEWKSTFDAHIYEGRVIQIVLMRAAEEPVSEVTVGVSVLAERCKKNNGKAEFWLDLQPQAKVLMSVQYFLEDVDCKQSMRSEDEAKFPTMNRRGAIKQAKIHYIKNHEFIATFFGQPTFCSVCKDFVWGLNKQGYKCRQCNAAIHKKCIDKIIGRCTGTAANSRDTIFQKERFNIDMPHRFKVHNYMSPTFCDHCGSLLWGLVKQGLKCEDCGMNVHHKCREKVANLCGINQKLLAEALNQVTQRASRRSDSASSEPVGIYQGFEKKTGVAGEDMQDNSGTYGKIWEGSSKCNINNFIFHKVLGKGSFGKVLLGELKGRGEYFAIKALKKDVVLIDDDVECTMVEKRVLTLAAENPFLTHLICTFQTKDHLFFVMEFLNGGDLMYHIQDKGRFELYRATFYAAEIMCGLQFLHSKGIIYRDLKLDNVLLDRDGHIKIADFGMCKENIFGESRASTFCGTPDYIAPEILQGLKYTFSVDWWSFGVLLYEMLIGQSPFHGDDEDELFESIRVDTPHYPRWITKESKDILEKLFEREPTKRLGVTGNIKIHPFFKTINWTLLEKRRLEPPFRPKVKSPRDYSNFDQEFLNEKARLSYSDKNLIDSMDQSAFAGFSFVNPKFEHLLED
Description: PKC assay with purified PKCδ. The class given is biochemical. The conditions noted are these: about 1-100 μM, data not shown. How it is done: (§2) Protein kinase C assay. Rat hippocampal cells were cultured and scraped in 0.2 ml homogenization buffer (20 mM Tris-HCl, pH 7.4, 50 mM NaF, 1 μg/ml leupeptin, and 0.1 mM PMSF) and homogenized by sonication a Marsonix microprobe sonicator (5 sec, 10W). To measure PKC, 10 μl of cell homogenate or purified PKC isozyme (purchased from Calbiochem) was incubated for 15 min at 37° C. in the presence of 10 μM histones, 4.89 mM CaCl2, 1.2 μg/μl phosphatidyl-L-serine, 0.18 μg/μl 1,2-dioctanoyl-sn-glycerol, 10 mM MgCl2, 20 mM HEPES (pH 7.4), 0.8 mM EDTA, 4 mM EGTA, 4% glycerol, 8 μg/ml aprotinin, 8 μg/ml leupeptin, and 2 mM benzamidine. 0.5 Ci [^γ32P]ATP was added and ^32P-phosphoprotein formation was measured by adsorption onto phosphocellulose as described previously. Nelson and Alkon, J. Neurochemistry (1995), vol. 65, pp. 2350-2357. For measurements of activation by BR-101 (DCP-LA) and similar compounds. PKC activity was measured in the absence of diacylglycerol and phosphatidylserine and PKC δ, ε, η, and μ were measured in the absence of added EGTA and CaCl2, as described by Kanno et al. (J. Lipid Res. 2006, vol. 47, pp. 1146-1150). […]
(§3) To determine their PKC isozyme specificity, fatty acid derivatives were preincubated with purified PKC for five minutes and the PKC activity was measured radiometrically.

The subject of data set [1] is SH-SY5Y neuroblastoma cells. In words: Cell survival and proliferation (alamar Blue, CyQuant). In kind it is cell-based, human. The conditions noted are these: alamar Blue and CyQuant staining. How it is done:
(§4) Aβ Measurement and Cell Viability Assay. Aβ was measured using an Aβ 1-42 human fluorimetric ELISA kit (Invitrogen) according to the manufacturer's instructions. Results were measured in a Biotek Synergy HT microplate reader. AlamarBlue and CyQuant NF (Invitrogen) according to the manufacturer's instructions.

The next data set deals with Aβ. Description: Aβ production in N2a neuroblastoma cells transfected with human APPSwe/PSID. In kind it is cell-based, mouse. The note with it: 24 hours. On the procedure: as §1, §4
To measure the effects of PKCε activation on Aβ production, mouse neuro2a (N2a) neuroblastoma cells transfected with human APPSwe/PSID were used, which produce large quantities of Aβ. Petanceska et al., J. Neurochem. (1996), vol. 74, pp. 1878-1884. […] With bryostatin, which activates PKC by binding to the diacylglycerol-binding site, the inhibition was biphasic with concentrations of 20 nM or higher producing no net effect. This may be explained by the ability of this class of PKC activators to downregulate PKC when used at high concentrations.

The subject of a further data set is other PKC isoforms. Description: PKC isozyme specificity, other isoforms. In kind it is biochemical. The note with it: at 10 μM, data not shown. On the procedure:
as §2, §3

In a further data set the test system is TACE. Description: TACE activity in neuronal cells. The class given is cell-based, human, mouse. The note with it: SH-SY5Y cells, N2a cells, primary neurons from rat hippocampus. How it is done: TACE Assay. TACE was measured by incubating 5 μl cell homogenate, 3 μl buffer (50 mM Tris-HCl 7.4 plus 25 mM NaCl plus 4% glycerol), and 1 μl of 100 μM TACE substrate (Aβz-[…]-DPa) (Calbiochem) for 20 min at 37° C. 1.5-ml polypropylene centrifuge tubes. Jin et al., Anal. Biochem. (2002), vol. 302, pp. 269-275. The reaction was stopped by cooling to 4° C. The samples were diluted to 1 ml and the fluorescence was rapidly measured (ex=320 nm, em=420 nm) in a Spex Fluorolog 2 spectrofluorometer.

The target of a further data set is T2, PKCε (Homo sapiens, UniProt Q02156).
T2 construct: purchased Calbiochem
T2 sequence (Q02156 1-737): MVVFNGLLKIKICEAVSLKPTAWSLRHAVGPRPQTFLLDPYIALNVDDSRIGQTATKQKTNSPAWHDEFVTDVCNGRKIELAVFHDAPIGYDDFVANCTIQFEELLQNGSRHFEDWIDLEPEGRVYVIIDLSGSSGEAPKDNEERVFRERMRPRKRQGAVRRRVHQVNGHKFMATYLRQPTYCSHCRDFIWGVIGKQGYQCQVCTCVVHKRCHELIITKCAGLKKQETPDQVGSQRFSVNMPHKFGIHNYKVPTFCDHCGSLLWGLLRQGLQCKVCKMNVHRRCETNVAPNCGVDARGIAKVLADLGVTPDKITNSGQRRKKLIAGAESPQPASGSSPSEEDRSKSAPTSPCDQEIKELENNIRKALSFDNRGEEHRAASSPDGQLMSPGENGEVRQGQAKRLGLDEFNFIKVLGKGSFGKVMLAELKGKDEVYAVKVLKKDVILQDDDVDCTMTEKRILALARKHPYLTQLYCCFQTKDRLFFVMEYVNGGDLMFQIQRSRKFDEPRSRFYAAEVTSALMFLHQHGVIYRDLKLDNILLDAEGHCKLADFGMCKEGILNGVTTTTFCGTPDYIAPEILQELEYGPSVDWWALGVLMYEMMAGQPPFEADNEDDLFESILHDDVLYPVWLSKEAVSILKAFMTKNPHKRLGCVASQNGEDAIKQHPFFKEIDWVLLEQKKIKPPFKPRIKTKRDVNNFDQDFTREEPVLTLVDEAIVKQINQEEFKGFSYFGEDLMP
The note with it: cited from earlier work.

The text below walks through data of patent publication US20120027687A1, “FATTY ACID PROTEIN KINASE C ACTIVATORS AND ANTICOAGULANT FOR THE TREATMENT OF STROKE” (priority 2010, published 2012).

Turning to `CCCCCC1CC1CC1CC1CCCCCCCC(=O)O` (stereo not shown) [BR-101, 2-[(2-pentylcyclopropyl)methyl]cyclopropaneoctanoic acid], the “duration of elevated PKC” value in the data set with PKC is “remained elevated for at least four hours”. Besides, the “effect on PKCδ at higher concentrations” value at PKCδ is listed as “partially inhibited”. Also, in data set [1], the “effect on cell survival” value is “no effect” and the effect on proliferation entry is reported as “no effect”. In the data set on Aβ (various concentrations), the “levels of intracellular Aβ” value was “markedly reduced” and the “levels of secreted Aβ” value is on record as “markedly reduced”. Besides, the “concentration dependence of Aβ inhibition” value with Aβ (fatty acid derivatives up to 10 μM to 100 μM) is “monotonically increasing inhibition”. Also, the “effects on the other PKC isoforms” value in the data set with other PKC isoforms is listed as “relatively small effects”. The TACE activity entry in the data set with TACE is listed as “small increases”. Also, on PKCε, the “concentration of maximal effect on PKCε” value is 100 nM.
